Results reported in article PMC7465469, “Inhibition of the Lysophosphatidylinositol Transporter ABCC1 Reduces Prostate Cancer Cell Growth and Sensitizes to Chemotherapy” (Cancers, 2020).

Molecular target: T1, ABCC1 (Homo sapiens, UniProt P33527)
T1 construct: wild-type ABCC1 (pcDNA3-ABCC1) transiently expressed in HEK293T cells
Assay: Calcein-AM efflux, two-colour flow cytometry in ABCC1-transfected HEK293T cells
Assay type: cell-based

T1 sequence (P33527 whole entry): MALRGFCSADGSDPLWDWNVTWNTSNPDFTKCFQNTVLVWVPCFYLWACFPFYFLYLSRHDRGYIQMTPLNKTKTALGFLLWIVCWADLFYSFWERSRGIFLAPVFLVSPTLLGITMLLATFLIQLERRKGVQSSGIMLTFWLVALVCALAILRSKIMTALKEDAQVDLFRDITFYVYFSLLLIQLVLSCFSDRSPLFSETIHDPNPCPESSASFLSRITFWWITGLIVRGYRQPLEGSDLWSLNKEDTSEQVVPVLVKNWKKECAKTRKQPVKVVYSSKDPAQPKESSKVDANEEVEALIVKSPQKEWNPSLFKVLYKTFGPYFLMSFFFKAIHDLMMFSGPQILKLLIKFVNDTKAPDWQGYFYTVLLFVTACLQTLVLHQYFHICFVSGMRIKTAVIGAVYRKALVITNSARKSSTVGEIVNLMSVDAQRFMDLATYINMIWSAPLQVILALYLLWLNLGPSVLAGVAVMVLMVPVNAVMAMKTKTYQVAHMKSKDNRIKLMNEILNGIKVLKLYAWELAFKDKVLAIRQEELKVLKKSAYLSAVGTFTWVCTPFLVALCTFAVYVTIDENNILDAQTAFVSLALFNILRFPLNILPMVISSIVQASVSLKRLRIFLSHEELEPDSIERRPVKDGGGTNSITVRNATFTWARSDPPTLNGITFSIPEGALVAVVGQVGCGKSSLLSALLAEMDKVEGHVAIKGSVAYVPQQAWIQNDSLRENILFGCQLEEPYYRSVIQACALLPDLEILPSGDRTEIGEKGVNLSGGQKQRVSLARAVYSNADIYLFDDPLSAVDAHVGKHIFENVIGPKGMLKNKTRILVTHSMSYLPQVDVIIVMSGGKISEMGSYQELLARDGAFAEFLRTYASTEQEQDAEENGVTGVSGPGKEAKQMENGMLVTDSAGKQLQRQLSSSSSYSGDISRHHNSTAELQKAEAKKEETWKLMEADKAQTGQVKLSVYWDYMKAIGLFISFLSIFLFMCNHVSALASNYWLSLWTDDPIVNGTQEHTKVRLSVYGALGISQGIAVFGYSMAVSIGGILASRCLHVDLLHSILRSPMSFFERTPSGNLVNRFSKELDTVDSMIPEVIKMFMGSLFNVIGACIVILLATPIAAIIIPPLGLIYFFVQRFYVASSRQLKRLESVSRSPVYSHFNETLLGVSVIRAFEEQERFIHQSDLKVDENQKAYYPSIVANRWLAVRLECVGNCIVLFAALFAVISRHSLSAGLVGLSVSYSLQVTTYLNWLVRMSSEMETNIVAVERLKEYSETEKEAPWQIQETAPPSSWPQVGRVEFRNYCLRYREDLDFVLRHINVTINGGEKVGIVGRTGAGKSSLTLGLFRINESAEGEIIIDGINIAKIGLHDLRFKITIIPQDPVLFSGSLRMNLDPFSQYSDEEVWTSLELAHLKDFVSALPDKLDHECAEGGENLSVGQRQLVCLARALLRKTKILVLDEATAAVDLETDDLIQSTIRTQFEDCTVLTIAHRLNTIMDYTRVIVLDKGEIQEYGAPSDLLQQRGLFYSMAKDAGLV

CC1=C(CC(=O)O)c2cc(F)ccc2/C1=C\c1ccc([S+](C)[O-])cc1 (stereo not shown) [Sulindac]
IC50: 106 µM
